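Cells were grown in 96-well plates and exposed to each compound for 48 hours at five concentrations; endpoints were interpolated linearly between bracketing concentrations, or set to the highest concentration if not reached. Definition used: TGI = concentration required for complete inhibition of growth.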
Assays:
Test in all cases: NCI-60 cell line screen, 48 h
SN12C renal = tested on: SN12C renal
RPMI-8226 leukemia = tested on: RPMI-8226 leukemia
SK-MEL-2 melanoma = tested on: SK-MEL-2 melanoma
HCT-15 colon = tested on: HCT-15 colon
SNB-19 CNS = tested on: SNB-19 CNS
DMS 273 small cell lung = tested on: DMS 273 small cell lung
UACC-62 melanoma = tested on: UACC-62 melanoma
OVCAR-5 ovarian = tested on: OVCAR-5 ovarian
OVCAR-8 ovarian = tested on: OVCAR-8 ovarian
MALME-3M melanoma = tested on: MALME-3M melanoma
IGROV1 ovarian = tested on: IGROV1 ovarian
OVCAR-4 ovarian = tested on: OVCAR-4 ovarian
XF 498 CNS = tested on: XF 498 CNS
SNB-78 CNS = tested on: SNB-78 CNS
M19-MEL melanoma = tested on: M19-MEL melanoma
OVCAR-3 ovarian = tested on: OVCAR-3 ovarian
CCRF-CEM leukemia = tested on: CCRF-CEM leukemia
HT29 colon = tested on: HT29 colon
HCT-116 colon = tested on: HCT-116 colon
SF-295 CNS = tested on: SF-295 CNS
SNB-75 CNS = tested on: SNB-75 CNS
DLD-1 colon = tested on: DLD-1 colon
SK-OV-3 ovarian = tested on: SK-OV-3 ovarian
ACHN renal = tested on: ACHN renal
A549 NSCLC = tested on: A549 NSCLC
KM12 colon = tested on: KM12 colon
HOP-92 NSCLC = tested on: HOP-92 NSCLC
UO-31 renal = tested on: UO-31 renal
HCC-2998 colon = tested on: HCC-2998 colon
A498 renal = tested on: A498 renal
NCI-H522 lung = tested on: NCI-H522 lung
EKVX NSCLC = tested on: EKVX NSCLC
NCI-H23 lung = tested on: NCI-H23 lung
SF-539 CNS = tested on: SF-539 CNS
M14 melanoma = tested on: M14 melanoma
LOX IMVI melanoma = tested on: LOX IMVI melanoma
SF-268 CNS = tested on: SF-268 CNS
RXF-631 renal = tested on: RXF-631 renal
MOLT-4 leukemia = tested on: MOLT-4 leukemia
UACC-257 melanoma = tested on: UACC-257 melanoma
NCI-H460 lung = tested on: NCI-H460 lung
DMS 114 small cell lung = tested on: DMS 114 small cell lung
U251 CNS = tested on: U251 CNS
786-0 renal = tested on: 786-0 renal
LXFL 529 NSCLC = tested on: LXFL 529 NSCLC
SW-620 colon = tested on: SW-620 colon
KM20L2 colon = tested on: KM20L2 colon
TK-10 renal = tested on: TK-10 renal
SK-MEL-28 melanoma = tested on: SK-MEL-28 melanoma
COLO 205 colon = tested on: COLO 205 colon
SK-MEL-5 melanoma = tested on: SK-MEL-5 melanoma
HOP-62 NSCLC = tested on: HOP-62 NSCLC

## Cc1ccc(-c2cc(=O)c3cc(C)c(C)c(C(=O)O)c3o2)cc1
SN12C renal
  TGI: > 100 µM
RPMI-8226 leukemia
  TGI: > 100 µM
SK-MEL-2 melanoma
  TGI: > 100 µM
HCT-15 colon
  TGI: > 100 µM
SNB-19 CNS
  TGI: > 100 µM
DMS 273 small cell lung
  TGI: > 100 µM
UACC-62 melanoma
  TGI: > 100 µM
OVCAR-5 ovarian
  TGI: > 100 µM
OVCAR-8 ovarian
  TGI: > 100 µM
MALME-3M melanoma
  TGI: > 100 µM
IGROV1 ovarian
  TGI: > 100 µM
OVCAR-4 ovarian
  TGI: > 100 µM
XF 498 CNS
  TGI: > 100 µM
SNB-78 CNS
  TGI: > 100 µM
M19-MEL melanoma
  TGI: > 100 µM
OVCAR-3 ovarian
  TGI: > 100 µM
CCRF-CEM leukemia
  TGI: > 100 µM
HT29 colon
  TGI: > 100 µM
HCT-116 colon
  TGI: > 100 µM
SF-295 CNS
  TGI: > 100 µM
SNB-75 CNS
  TGI: > 100 µM
DLD-1 colon
  TGI: > 100 µM
SK-OV-3 ovarian
  TGI: > 100 µM
ACHN renal
  TGI: > 100 µM
A549 NSCLC
  TGI: > 100 µM
KM12 colon
  TGI: > 100 µM
HOP-92 NSCLC
  TGI: > 100 µM
UO-31 renal
  TGI: > 100 µM
HCC-2998 colon
  TGI: > 100 µM
A498 renal
  TGI: > 100 µM
NCI-H522 lung
  TGI: 54.5 µM
EKVX NSCLC
  TGI: > 100 µM
NCI-H23 lung
  TGI: > 100 µM
SF-539 CNS
  TGI: 75 µM
M14 melanoma
  TGI: > 100 µM
LOX IMVI melanoma
  TGI: > 100 µM
SF-268 CNS
  TGI: > 100 µM
RXF-631 renal
  TGI: > 100 µM
MOLT-4 leukemia
  TGI: > 100 µM
UACC-257 melanoma
  TGI: > 100 µM
NCI-H460 lung
  TGI: > 100 µM
DMS 114 small cell lung
  TGI: > 100 µM
U251 CNS
  TGI: > 100 µM
786-0 renal
  TGI: > 100 µM
LXFL 529 NSCLC
  TGI: > 100 µM
SW-620 colon
  TGI: > 100 µM
KM20L2 colon
  TGI: > 100 µM
TK-10 renal
  TGI: > 100 µM
SK-MEL-28 melanoma
  TGI: > 100 µM
COLO 205 colon
  TGI: > 100 µM
SK-MEL-5 melanoma
  TGI: > 100 µM
HOP-62 NSCLC
  TGI: > 100 µM
